{"source": "patent US6387913B1", "about": "“Method of treating airway diseases with combined administration of A2B and A3 adenosine receptor antagonists” (priority 2000, dated 2002)", "format_in_all_cases": "in vivo", "key": {"[1]": {"target": "T1, A1 adenosine receptor (Mus musculus, UniProt Q60612)", "T1 construct": "from tissue; host or cells: live mouse (airways/lung), control and sensitized animals", "T1 sequence (Q60612 1-326)": "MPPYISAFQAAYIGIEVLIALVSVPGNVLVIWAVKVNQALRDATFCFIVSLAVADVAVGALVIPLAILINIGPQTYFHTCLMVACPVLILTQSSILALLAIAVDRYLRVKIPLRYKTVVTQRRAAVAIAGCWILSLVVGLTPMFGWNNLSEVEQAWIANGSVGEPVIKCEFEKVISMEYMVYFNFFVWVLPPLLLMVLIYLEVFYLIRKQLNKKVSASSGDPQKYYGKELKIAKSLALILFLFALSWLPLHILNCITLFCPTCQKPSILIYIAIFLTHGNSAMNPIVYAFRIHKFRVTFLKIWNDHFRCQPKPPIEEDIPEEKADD", "experiment": "Effect of A1 antagonist on dose-responsiveness to CPA (Penh) in a mouse model of asthma", "conditions": "DPCPX 10^-4 M nebulized 3 minutes, CPA dose response 15 minutes later; control and sensitized mice", "protocol": "FIG. 1 illustrates the effect of DPCPX (10^−4 M) on dose-responsiveness to CPA (micrograms per milliliter—ug/ml) in a mouse model of asthma. Control (Con)=dotted line, sensitized (Sen)=broken line, Con+DPCPX=solid line, and Sen+DPCPX=dashed line. Penh=percentage of saline in all Figures.\nFIG. 1 illustrates the effect of DPCPX (10^−4 M) on dose-responsiveness to CPA in a mouse model of asthma. The animals were nebulized with DPCPX […] for 3 minutes and 15 minutes later the dose response to CPA was performed. n=8 for each group. CPA is an A1 adenosine receptor agonist; DPCPX is an A1 adenosine receptor antagonist."}, "[2]": {"target": "T2, A2A adenosine receptor (Mus musculus, UniProt Q60613)", "T2 construct": "from tissue; host or cells: live mouse (airways/lung), control and sensitized animals", "T2 sequence (Q60613 whole entry)": "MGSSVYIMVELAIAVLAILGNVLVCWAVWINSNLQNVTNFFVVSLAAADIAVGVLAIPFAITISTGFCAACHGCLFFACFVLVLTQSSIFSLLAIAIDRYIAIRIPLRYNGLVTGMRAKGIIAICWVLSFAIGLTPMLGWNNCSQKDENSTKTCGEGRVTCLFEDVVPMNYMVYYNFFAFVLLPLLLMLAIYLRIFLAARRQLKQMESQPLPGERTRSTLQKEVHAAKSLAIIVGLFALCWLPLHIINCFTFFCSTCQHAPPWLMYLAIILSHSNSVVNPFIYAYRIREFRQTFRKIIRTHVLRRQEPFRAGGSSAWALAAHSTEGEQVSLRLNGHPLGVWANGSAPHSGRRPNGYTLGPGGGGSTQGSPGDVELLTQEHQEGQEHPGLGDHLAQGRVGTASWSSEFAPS", "experiment": "Effect of A2A antagonist on dose-responsiveness to CGS-21680 (Penh) in a mouse model of asthma", "conditions": "DMPX 10^-4 M nebulized 3 minutes, agonist dose response 15 minutes later; control and sensitized mice", "protocol": "FIG. 2 illustrates the effect of DMPX (10^−4 M) on dose-responsiveness to […] (ug/ml). Con=solid line, Sen=dashed line, Con+DMPX=broken line, and Sen+DMPX=dotted line.\nFIG. 2 illustrates the effect of DMPX (10^−4 M) on dose-responsiveness to […]. The animals were nebulized with DMPX (10^−4 M) for 3 minutes and 15 minutes later the dose response to CGS-21680 was performed. n=8 for each group. CGS-21680 is an A2A adenosine receptor agonist; DMPX is an A2A adenosine receptor antagonist."}, "[3]": {"target": "T3, A3 adenosine receptor (Mus musculus, UniProt Q61618)", "T3 construct": "from tissue; host or cells: live mouse (airways/lung), control and sensitized animals", "T3 sequence (Q61618 1-319)": "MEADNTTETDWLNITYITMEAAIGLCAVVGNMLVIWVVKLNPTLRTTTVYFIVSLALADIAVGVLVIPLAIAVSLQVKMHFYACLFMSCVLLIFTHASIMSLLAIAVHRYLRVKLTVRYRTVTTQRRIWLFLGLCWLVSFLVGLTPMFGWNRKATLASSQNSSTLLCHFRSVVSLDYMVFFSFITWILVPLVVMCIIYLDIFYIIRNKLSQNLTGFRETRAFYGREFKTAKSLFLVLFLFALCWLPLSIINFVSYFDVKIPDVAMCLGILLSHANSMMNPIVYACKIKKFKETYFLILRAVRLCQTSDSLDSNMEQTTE", "experiment": "Effect of MRS1220 on dose-responsiveness to IB-CL-MECA (bronchospasm) in a mouse model of asthma", "conditions": "MRS1220 10^-6 M; control and sensitized mice", "description": "Con=solid line, Sen=dotted line, Con+MRS=broken line, and Sen+MRS=dashed line.\nTherefore, the combination of A3 and A2B antagonists appear better at blocking the adenosine-induced bronchospasm in a mouse model of asthma."}, "[4]": {"target": "T4, A2B adenosine receptor (Mus musculus, UniProt Q60614)", "T4 construct": "from tissue; host or cells: live mouse (airways/lung), control and sensitized animals", "T4 sequence (Q60614 1-332)": "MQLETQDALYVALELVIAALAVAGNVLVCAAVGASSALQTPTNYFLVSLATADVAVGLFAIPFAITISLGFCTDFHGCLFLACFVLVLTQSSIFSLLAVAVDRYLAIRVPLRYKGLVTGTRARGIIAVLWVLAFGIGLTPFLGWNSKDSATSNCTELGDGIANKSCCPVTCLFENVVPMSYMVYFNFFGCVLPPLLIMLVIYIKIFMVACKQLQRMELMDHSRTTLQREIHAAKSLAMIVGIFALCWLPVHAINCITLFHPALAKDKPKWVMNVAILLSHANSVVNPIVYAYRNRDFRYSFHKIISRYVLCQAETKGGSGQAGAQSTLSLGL", "experiment": "Effect of enprofylline on dose-responsiveness to NECA (Penh) in a mouse model of asthma", "conditions": "enprofylline 12 mg/ml nebulized, NECA dose-response 15 minutes later; control and sensitized mice", "protocol": "FIG. 3 illustrates the effect of enprofylline (enp; 12 mg/ml) on dose-responsiveness to 5′-(N-ethyl)carboxamidoadenosine (NECA, in ug/ml). Con=dotted line, Sen=dashed line, Con+enp=solid line, and Sen+enp=broken line.\nFIG. 3 illustrates the effect of enprofylline (12 mg/ml) on dose-responsiveness to NECA. The animals were nebulized with enprofylline (12 mg/ml) for 1 minutes and 15 minutes later the dose-response to […] was performed. * p<0.05 compared to Sen+Enp group. # p<0.05 compared to control group. n=10 for each group. NECA is a non-selective adenosine receptor agonist; enprofylline is an A2B adenosine receptor antagonist."}}}
{"smiles": "CCCn1c(=O)c2[nH]c(C3CCCC3)nc2n(CCC)c1=O", "note": "[DPCPX]", "values": [{"measurement": "effect on dose-responsiveness to CPA (Penh)", "setting": "[1]", "result": "no A1 adenosine receptor involvement"}]}
{"smiles": "C#CCn1c(=O)c2c(ncn2C)n(C)c1=O", "note": "[DMPX]", "values": [{"measurement": "effect on dose-responsiveness to CGS-21680 (Penh)", "setting": "[2]", "result": "no A2A adenosine receptor involvement"}]}
{"smiles": "O=C(Cc1ccccc1)Nc1nc2ccc(Cl)cc2c2nc(-c3ccco3)nn12", "note": "[MRS1220]", "values": [{"measurement": "block of the bronchospasm produced by IB-CL-MECA", "setting": "[3]", "result": "did not completely block the bronchospasm"}]}
{"smiles": "CCCn1c(=O)[nH]c(=O)c2[nH]cnc21", "note": "[enprofylline]", "values": [{"measurement": "block of the response to NECA (Penh)", "setting": "[4]", "result": "did not totally block the response"}]}
